According to US11028078B2 (The Johns Hopkins University, priority 2011, dated 2021):

Columns and labels:
HUVEC = HUVEC proliferation assay ([3H]thymidine incorporation); assay type: cell-based, human; details: HUVEC; for Proliferation (IC50/IC50 Itra): IC50 of analog relative to IC50 of itraconazole; for IC50: Homo sapiens, 3H thymidine incorporation, in μM, read-out: Proliferation IC50
Procedure: The activity of the analogs against HUVEC proliferation, an in vitro proxy for angiogenesis inhibition (Table 3) was analyzed. […]
Pooled HUVEC (Lonza) were grown in EGM-2 bullet kit media (Lonza) and used at passage eight or lower. The proliferation assays were conducted as previously described (Nacev, B.; Low, W. K.; Huang, Z.; Su, T.; Su, Z.; Alkuraya, H.; Kasuga, D.; Sun, W.; Trager, M.; Braun, M.; Fischer, G.; Zhang, K.; Liu, J. O., Acalcineurin-independent mechanism of angiogenesis inhibition by anon-immunosuppressive Cyclosporin Aanalog. J. Pharmacol. Exp. Ther. 2011, DOI:10.1124/jpet.111.18085).

Gli1 transcript = experiment: Quantification of Gli1 transcript by TaqMan analysis in MB cells (Hh pathway); assay type: cell-based, mouse; details: Gli1 transcript fold induction score; MB cells exposed 24 h at the IC90 for MB proliferation
From the text: Inhibitors of the Hh pathway are known to inhibit MB cell proliferation. However, MB cell proliferation is also affected by drugs with targets other than Hh signaling.
Following drug exposure, cells were washed in PBS and pelleted by centrifugation at 300×g. Cell pellets were lysed in Trizol reagent (Invitrogen). Total RNA was separated and collected in the aqueous phase following centrifugation of lysate in the presence of chloroform. Total RNA was ethanol precipitated and purified over RNeasy Mini Kit (Qiagen) filter columns per manufacturer's recommendations. Transcript levels were quantified using gene-specific TaqMan primer/probe sets and the StepOne Plus Real-Time PCR system (Applied Biosystems) on cDNA reverse transcribed using the QuantiTect Reverse Transcription Kit (Qiagen) per manufacturers' recommendations. Results were quantified using StepOne Plus software v2.1 (Applied Biosystems) and were expressed as fold induction relative to control samples using the A ΔCt (2^−ΔΔCt) method with actin as an internal control. The primer/probe set (Applied Biosystems) for TaqMan PCR for mouse Gli-1 was Mm00494645_m1, and for mouse actin was Mm00607939_s1.

[1] = system: MB cultures derived from Ptch−/+; p53−/− mice; experiment: Medulloblastoma (MB) proliferation assay; assay type: cell-based, mouse; details: mouse medulloblastoma cultures, 96 h; relative to itraconazole
From the text: These cultures were derived from Ptch^−/+; p53^−/− mice that spontaneously develop medulloblastoma associated with ligand independent Hh pathway activation.
MB cultures were derived from mouse Ptch^−/+; p53^−/− MB grown as hind-flank allografts in nude mice (Harlan). Briefly, tumors were mechanically disrupted and made into single cell suspensions by two passages through a 70 μm nylon filter. Cells were pelleted by centrifugation and resuspended in PBS pH 7.4 twice. The cell suspension was then subjected to centrifugation at 1000×g for 25 min over a ficoll gradient. The viable cell layer formed at the ficoll boundary was then collected, suspended in PBS, and pelleted by centrifugation. The resulting pellet was then suspended and cultured as “neurospheres” in Neurobasal Media-A supplemented with retinoic acid deficient B-27 extract (NBMedia). Cells were cultured for three passages, with neurospheres disaggregated using Accumax (Innovative Cell Technologies) between passages.
Cultured MB neurospheres were disaggregated as described and 1×10^4 cells were seeded into wells of a 96-well assay plate in NBMedia and exposed to multiple analogue concentrations: Relative cell numbers following a 96-h incubation were quantified by CellTiter 96® AQueous One Solution Cell Proliferation Assay (Promega) per manufacturer's recommendations using a SpectraMax M2e spectrophotometer and SoftMax Pro software (Molecular Devices). Data was analyzed using Prism5 (GraphPad Software) and IC50 and IC90 values were determined from dose-response curves fitted to mean corrected absorbance normalized to control treatment.

VEGFR2 = VEGFR2 glycosylation in HUVEC (Western blot scoring); assay type: cell-based, human; details: VEGFR2 hypoglycosylation score in HUVEC, 2 μM, 24 h
Procedure: VEGFR2 hypoglycosylation was scored either robust (++), intermediate (+), or absent (−) (FIG. 6).
HUVEC were seeded at 5×10^4 per well of a 6-well plate in 3 mL of media. After an overnight recovery, the media was replaced with 2 mL fresh media and the analogs were added from 200× stocks in DMSO. Following a 24-h incubation, the media was aspirated and 2×SDS sample buffer was added to the cells which were incubated on ice for 10 min and then boiled for 10 min. […] Following three washes in TBS-T, the membrane was incubated with anti-rabbit horseradish peroxidase conjugated IgG (GE Healthcare) (1:5000-1:10000 dilution) in 1% BSA in TBS-T. The membranes were washed three times in TBS-T, incubated for 1-5 minutes with ECL substrate (Immobilon Wester, Milipore) and visualized (Kodak Image Staion 440 CF).

CYP3A4 = biological target: T1, CYP3A4 (Homo sapiens, UniProt P08684); experiment: CYP3A4 enzyme assay (Vivid CYP3A4 Green Screening Kit); assay type: in vitro ADME; details: for CYP3A4 Inhibition (compared to intracozanole at 1 μm): % enzyme inhibition at 1 μM drug / % enzyme inhibition at 1 μM itraconazole
T1 construct: purchased ThermoFisher P2857; host or cells: baculosomes
Procedure: And CYP3A4 inhibition was initially determined using a cell-free fluorescence-based assay at a final concentration of 1 μM (Table 7).
CYP3A4 enzyme assay. CYP3A4 enzyme activity was tested using Vivid™ CYP3A4 Green Screening Kit (ThermoFisher, #P2857) using the manufacturer's protocol. Briefly, CYP3A4 baculosomes and drugs were incubated 10 min at 37° C. Then Vivid® Substrates were added and the fluorescence (ex/em:485/520) were read every 1 min for 60 minute.

T1 sequence (P08684 whole entry): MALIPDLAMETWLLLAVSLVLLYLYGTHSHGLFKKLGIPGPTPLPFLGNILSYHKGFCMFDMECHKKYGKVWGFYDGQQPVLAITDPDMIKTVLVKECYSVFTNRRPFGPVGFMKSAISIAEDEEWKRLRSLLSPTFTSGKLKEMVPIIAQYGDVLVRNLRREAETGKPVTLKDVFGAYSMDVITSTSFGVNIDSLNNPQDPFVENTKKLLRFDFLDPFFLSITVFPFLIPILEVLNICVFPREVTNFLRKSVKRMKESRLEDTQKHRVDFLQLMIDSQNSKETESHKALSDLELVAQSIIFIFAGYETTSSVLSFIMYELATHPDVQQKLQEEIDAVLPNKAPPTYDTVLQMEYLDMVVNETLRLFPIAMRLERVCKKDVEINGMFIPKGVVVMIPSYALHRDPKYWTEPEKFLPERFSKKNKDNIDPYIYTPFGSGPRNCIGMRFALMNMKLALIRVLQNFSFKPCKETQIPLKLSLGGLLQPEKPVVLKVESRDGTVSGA

Molecule	Proliferation (IC50/IC50 Itra) (HUVEC)	Gli I Inhibition (IC90 Prolif. dose) (Gli1 transcript)	MB Proliferation (IC50/IC50 Itra) [1]	Glycosylation (2 μM dose) (VEGFR2)	Proliferation (EC50/IC50 Itra) (HUVEC; footnote g: EC50 of analog relative to IC50 of itraconazole)	IC50 (HUVEC)	CYP3A4 Inhibition (compared to intracozanole at 1 μm) (CYP3A4)	CYP3A4 inhibition in the initial screening (CYP3A4; 1 μM)
CCC1(Cn2ncn(-c3ccc(N4CCN(c5ccc(OCC6COC(Cn7cncn7)(c7ccc(Cl)cc7Cl)O6)cc5)CC4)cc3)c2=O)COC1 [Compound 7v, cis-(2S,4R)-4-[4-[4-[4-[[2-(2,4-Dichlorophenyl)-2-(1H-1,2,4-triazol-1-ylmethyl)-1,3-dioxolan-4-yl]methoxy]phenyl]-lpiperazinyl]phenyl]-2,4-dihydro-2-((3-ethyloxetan-3-yl)methyl)-3H-1,2,4-triazol-3-one]	0.77	+ (0.16 to 0.44)	0.74	++				
CC1(CCn2ncn(-c3ccc(N4CCN(c5ccc(OCC6COC(Cn7cncn7)(c7ccc(Cl)cc7Cl)O6)cc5)CC4)cc3)c2=O)N=N1 [Compound 7w, cis-(2S,4R)-4-[4-[4-[4-[[2-(2,4-Dichlorophenyl)-2-(1H-1,2,4-triazol-1-ylmethyl)-1,3-dioxolan-4-yl]methoxy]phenyl]-lpiperazinyl]phenyl]-2,4-dihydro-2-(2-(3-methyl-3H-diazirin-3-yl)ethyl)-3H-1,2,4-triazol-3-one]	>13.8	+ (0.16 to 0.44)	1.32	+				
CC1(CCCCCCCn2ncn(-c3ccc(N4CCN(c5ccc(OCC6COC(Cn7cncn7)(c7ccc(Cl)cc7Cl)O6)cc5)CC4)cc3)c2=O)N=N1 [Compound 7x, cis-(2S,4R)-4-[4-[4-[4-[[2-(2,4-Dichlorophenyl)-2-(1H-1,2,4-triazol-1-ylmethyl)-1,3-dioxolan-4-yl]methoxy]phenyl]-lpiperazinyl]phenyl]-2,4-dihydro-2-(7-(3-methyl-3H-diazirin-3-yl)heptyl)-3H-1,2,4-triazol-3-one]		− (≥0.45)	1.18	−	1.1^g			
O=c1[nH]ncn1-c1ccc(N2CCN(c3ccc(OC[C@H]4CO[C@](Cn5cncn5)(c5ccc(Cl)cc5Cl)O4)cc3)CC2)cc1 [Compound 17a, 4-(4-(4-(4-(((2R,4S)-2-((1H-1,2,4-triazol-1-yl)methyl)-2-(2,4-dichlorophenyl)-1,3-dioxolan-4-yl)methoxy)phenyl)piperazin-1-yl)phenyl)-1H-1,2,4-triazol-5(4H)-one]	2.78	++ (≤0.15)	0.89	−				
CCC(C)n1ncn(-c2ccc(N3CCN(c4ccc(OC[C@@H]5CO[C@@](Cn6ccnc6)(c6ccc(Cl)cc6Cl)O5)cc4)CC3)cc2)c1=O (stereo partly drawn) [Compound 233, 4-(4-(4-(4-(((2S,4R)-2-((1H-imidazol-1-yl)methyl)-2-(2,4-dichlorophenyl)-1,3-dioxolan-4-yl)methoxy)phenyl)piperazin-1-yl)phenyl)-1-sec-butyl-1H-1,2,4-triazol-5(4H)-one]						0.085 µM	1.18	
CCC(C)n1ncn(-c2ccc(N3CCN(c4ccc(OC[C@@H]5CO[C@@](Cn6cccn6)(c6ccc(Cl)cc6Cl)O5)cc4)CC3)cc2)c1=O (stereo partly drawn) [Compound 234, 4-(4-(4-(4-(((2S,4R)-2-((1H-pyrazol-1-yl)methyl)-2-(2,4-dichlorophenyl)-1,3-dioxolan-4-yl)methoxy)phenyl)piperazin-1-yl)phenyl)-1-sec-butyl-1H-1,2,4-triazol-5(4H)-one]						0.307 µM	No inhibition	
CCC(C)n1ncn(-c2ccc(N3CCN(c4ccc(OC[C@@H]5CO[C@@](Cn6ccnc6C)(c6ccc(Cl)cc6Cl)O5)cc4)CC3)cc2)c1=O (stereo partly drawn) [Compound 235, 1-sec-butyl-4-(4-(4-(4-(((2S,4R)-2-(2,4-dichlorophenyl)-2-((2-methyl-1H-imidazol-1-yl)methyl)-1,3-dioxolan-4-yl)methoxy)phenyl)piperazin-1-yl)phenyl)-1H-1,2,4-triazol-5(4H)-one]						0.173 µM	0.85	
CCC(C)n1ncn(-c2ccc(N3CCN(c4ccc(OC[C@@H]5CO[C@@](Cn6cnc(C)c6)(c6ccc(Cl)cc6Cl)O5)cc4)CC3)cc2)c1=O (stereo partly drawn) [Compound 238, 1-sec-butyl-4-(4-(4-(4-(((2S,4R)-2-(2,4-dichlorophenyl)-2-((4-methyl-H-imidazol-1-yl)methyl)-1,3-dioxolan-4-yl)methoxy)phenyl)piperazin-1-yl)phenyl)-1H-1,2,4-triazol-5(4H)-one]						0.102 µM	1.18	
CCC(C)n1ncn(-c2ccc(N3CCN(c4ccc(OC[C@@H]5CO[C@@](Cn6cc(C(F)(F)F)nc6C)(c6ccc(Cl)cc6Cl)O5)cc4)CC3)cc2)c1=O (stereo partly drawn) [Compound 239, 1-(sec-butyl)-4-(4-(4-(4-(((2S,4R)-2-(2,4-dichlorophenyl)-2-((2-methyl-4-(trifluoromethyl)-1H-imidazol-1-yl)methyl)-1,3-dioxolan-4-yl)methoxy)phenyl)piperazin-1-yl)phenyl)-1H-1,2,4-triazol-5(4H)-one]						0.441 µM	No inhibition	eliminated
CCC(C)n1ncn(-c2ccc(N3CCN(c4ccc(OC[C@@H]5CO[C@@](Cn6cc(C)nc6C)(c6ccc(Cl)cc6Cl)O5)cc4)CC3)cc2)c1=O (stereo partly drawn) [Compound 240, 1-(sec-butyl)-4-(4-(4-(4-(((2S,4R)-2-(2,4-dichlorophenyl)-2-((2,4-dimethyl-1H-imidazol-1-yl)methyl)-1,3-dioxolan-4-yl)methoxy)phenyl)piperazin-1-yl)phenyl)-1H-1,2,4-triazol-5(4H)-one]						0.492 µM	0.45	
CCC(C)n1ncn(-c2ccc(N3CCN(c4ccc(OC[C@@H]5CO[C@@](Cc6ccccc6)(c6ccc(Cl)cc6Cl)O5)cc4)CC3)cc2)c1=O (stereo partly drawn) [Compound 260, 4-(4-(4-(4-(((2R,4R)-2-benzyl-2-(2,4-dichlorophenyl)-1,3-dioxolan-4-yl)methoxy)phenyl)piperazin-1-yl)phenyl)-1-sec-butyl-1H-1,2,4-triazol-5(4H)-one]							No inhibition	
cis-(2R,4S)-4-[4-[4-[4-[[2-(2,4-Dichlorophenyl)-2-(1H-1,2,4-triazol-1-ylmethyl)-1,3-dioxolan-4-yl]methoxy]phenyl]-lpiperazinyl]phenyl]-2,4-dihydro-2-(pent-4-ynyl)-3H-1,2,4-triazol-3-one [Compound 7r]	0.14	++ (≤0.15)	0.71	−				
